Some test systems named below: OVCAR-5; PC-3; RPMI-8226; HCT-15; LOX IMVI; NCI/ADR-RES; A549; SK-MEL-2; UO-31; MCF7; K562; SW-620; IGROV-1; SF-268; A498; SK-MEL-5; RXF 393; NCI-H460; MDA-MB-231.
Holding throughout (test): growth of human tumour cells (NCI), 48 h

SMILES strings stand for the structures.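 Method: 48-hour compound exposure of cells in 96-well plates, five concentrations, linear interpolation of endpoints. GI50: concentration for 50% inhibition of growth.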 Active and inactive are the calls of the source. Rule as the data show it: active = GI50 up to about 1.1 µM and inactive = higher. Where only a bound is given, the exact number is not on record here.

As for `O=C(O)c1cc(CCc2cc(O)ccc2O)ccc1O`, the GI50 was > 100 µM (inactive) in the assay on OVCAR-5; > 100 µM (inactive) with PC-3; > 100 µM (inactive) in the assay on RPMI-8226; above 100 µM in the assay on HCT-15; 32.1 µM (inactive) in the assay on LOX IMVI; > 100 µM (inactive) in the assay on NCI/ADR-RES. For the same compound, the GI50 in the assay with A549 is > 100 µM (inactive); with SK-MEL-2, > 100 µM (inactive); in the assay with UO-31, > 100 µM (inactive); in the assay on MCF7 it was > 100 µM (inactive); in the assay with K562, 37.2 µM (inactive); in the assay on SW-620 it was 39.2 µM (inactive). Also, the GI50 in the assay with IGROV-1, in the assay on SF-268, in the assay on A498, in the assay on SK-MEL-5, with RXF 393 and in the assay on NCI-H460 was > 100 µM (inactive) in each case.

Turning to `Cc1ncc(COP(=O)(O)O)c(C)c1O`, the GI50 with OVCAR-5 was > 100 µM (inactive); in the assay with PC-3 it was > 100 µM (inactive); in the assay on HCT-15, above 100 µM; in the assay with LOX IMVI, > 100 µM (inactive); in the assay with NCI/ADR-RES it was > 100 µM (inactive); in the assay with A549, > 100 µM (inactive). Also, the GI50 in the assay on SK-MEL-2, in the assay on UO-31, with K562, in the assay with MDA-MB-231, with SW-620 and with IGROV-1 was > 100 µM (inactive) in each case. Besides, the GI50 with SF-268, in the assay on A498, in the assay with SK-MEL-5, in the assay on RXF 393 and with NCI-H460 was > 100 µM (inactive) in each case.

As to `CCOC(=O)c1c(NC(=O)c2ccc(Br)cc2)sc2c1CCCC2`, the GI50 in the assay on OVCAR-5, in the assay on PC-3, in the assay on RPMI-8226, in the assay with A549, in the assay on SK-MEL-2 and with UO-31 was > 100 µM (inactive) throughout. Also, the GI50 is > 100 µM (inactive) with MCF7; > 100 µM (inactive) with K562; > 100 µM (inactive) in the assay on MDA-MB-231; > 100 µM (inactive) in the assay with SW-620; 97.1 µM (inactive) in the assay with IGROV-1; > 100 µM (inactive) in the assay with SF-268. The GI50 was 25.1 µM (inactive) with A498, > 100 µM (inactive) in the assay with SK-MEL-5, > 100 µM (inactive) with RXF 393 and 0.182 µM (active) in the assay on NCI-H460.

In the case of `CCCCc1ccc(Nc2nc(O)c3ncn(COCCO)c3n2)cc1`, the GI50 with OVCAR-5 is > 100 µM (inactive); with RPMI-8226, 43.9 µM (inactive); with HCT-15, above 100 µM; in the assay with LOX IMVI, > 100 µM (inactive); with NCI/ADR-RES it was > 100 µM (inactive); in the assay with A549 it was > 100 µM (inactive). Further, the GI50 in the assay with SK-MEL-2 is > 100 µM (inactive); in the assay with UO-31, > 100 µM (inactive); in the assay on MCF7, > 100 µM (inactive); in the assay on K562, 29.8 µM (inactive); in the assay on MDA-MB-231 it was > 100 µM (inactive); in the assay on SW-620, > 100 µM (inactive). Besides, the GI50 in the assay on IGROV-1, in the assay with SF-268, in the assay with A498, with SK-MEL-5 and in the assay on RXF 393 was > 100 µM (inactive) in each case.

For the compound `CCCC(=O)Nc1ccc2c(c1)CN1C(=O)c3ccccc3C1=N2`, the GI50 in the assay on OVCAR-5 is > 100 µM (inactive); with PC-3 it was > 100 µM (inactive); in the assay on RPMI-8226, > 100 µM (inactive); in the assay on HCT-15 it was above 100 µM; in the assay on LOX IMVI it was > 100 µM (inactive); in the assay on NCI/ADR-RES, > 100 µM (inactive). In addition, the GI50 in the assay on A549, in the assay with SK-MEL-2, in the assay with UO-31, in the assay with MCF7, in the assay on MDA-MB-231 and in the assay with SW-620 was > 100 µM (inactive) throughout. The GI50 with IGROV-1, with SF-268, with SK-MEL-5 and in the assay on NCI-H460 was > 100 µM (inactive) throughout.

In the case of `O=C(Nc1ccc(Cl)cc1C(F)(F)F)C(=O)C1CCCS1(=O)=O` (stereo not drawn), the GI50 in the assay on OVCAR-5 is > 100 µM (inactive); in the assay on RPMI-8226 it was > 100 µM (inactive); in the assay with HCT-15 it was above 100 µM; in the assay on LOX IMVI, > 100 µM (inactive); with A549 it was > 100 µM (inactive); with K562 it was > 100 µM (inactive). The GI50 is > 10 µM (inactive) in the assay on SW-620; > 10 µM (inactive) in the assay on IGROV-1; > 100 µM (inactive) in the assay on SF-268; > 100 µM (inactive) in the assay on A498; > 100 µM (inactive) in the assay on SK-MEL-5; > 100 µM (inactive) with RXF 393. Further, the GI50 in the assay with NCI-H460 is > 100 µM (inactive).

`COc1ccc2nc3ccc(OC)cc3c(SCc3ccc([N+](=O)[O-])cc3)c2c1`: the GI50 was > 100 µM (inactive) in the assay with OVCAR-5; 68.2 µM (inactive) with PC-3; above 100 µM in the assay on HCT-15; > 100 µM (inactive) with LOX IMVI; 67 µM (inactive) in the assay with NCI/ADR-RES; > 100 µM (inactive) with A549. In addition, the GI50 in the assay on SK-MEL-2 was > 100 µM (inactive); with UO-31, > 100 µM (inactive); in the assay with K562, > 100 µM (inactive); with MDA-MB-231 it was 39.2 µM (inactive); in the assay on SW-620, > 100 µM (inactive); with IGROV-1 it was 63.5 µM (inactive). Further, the GI50 was 54.7 µM (inactive) in the assay on SF-268, > 100 µM (inactive) with A498, > 100 µM (inactive) in the assay on RXF 393 and > 100 µM (inactive) with NCI-H460.

With `N#CCc1nc2cc(C(F)(F)F)ccc2s1`, the GI50 with OVCAR-5 is > 100 µM (inactive); in the assay with RPMI-8226, 29.4 µM (inactive); in the assay with HCT-15, 52.1 µM; in the assay with LOX IMVI it was 26.4 µM (inactive); with NCI/ADR-RES, 55.7 µM (inactive); in the assay on MDA-MB-231, 95.1 µM (inactive). For the same compound, the GI50 with SW-620 is 56.4 µM (inactive); with SF-268, 34.8 µM (inactive); in the assay with A498 it was 70 µM (inactive); in the assay with SK-MEL-5 it was 50.7 µM (inactive); in the assay with RXF 393 it was 52.2 µM (inactive).

Turning to `Cc1c2c(cc3c1C(=O)C(O)=C([C@@H](C)CO)C3=O)C(C)(C)CCC2`, the GI50 with OVCAR-5 is 36.9 µM (inactive); with PC-3, 19.1 µM (inactive); with RPMI-8226, 31.3 µM (inactive); in the assay on HCT-15, 29.4 µM; in the assay on LOX IMVI, 28.3 µM (inactive); in the assay with NCI/ADR-RES, 23.3 µM (inactive). The GI50 with A549 is 29.8 µM (inactive); in the assay on SK-MEL-2, 17.1 µM (inactive); with UO-31, 17.5 µM (inactive); with K562, 38.7 µM (inactive); with MDA-MB-231 it was 23.4 µM (inactive); with SW-620, 30.2 µM (inactive). Besides, the GI50 in the assay on IGROV-1 is 29 µM (inactive); in the assay on SF-268, 15 µM (inactive); in the assay on A498 it was 25.6 µM (inactive); with SK-MEL-5, 22.2 µM (inactive); in the assay with RXF 393, 32.1 µM (inactive).

With `Cc1cc2c3ccccc3[nH]c2c2ccnc(C)c12`, the GI50 with OVCAR-5 is 7.36 µM (inactive); with PC-3, 10.2 µM (inactive); in the assay on RPMI-8226 it was 3.21 µM (inactive); in the assay with HCT-15, 2.34 µM; in the assay with LOX IMVI, 2.15 µM (inactive); with NCI/ADR-RES, 14.7 µM (inactive). Moreover, the GI50 in the assay with A549 was 8.28 µM (inactive); in the assay on SK-MEL-2, 8.63 µM (inactive); in the assay on UO-31, 14.2 µM (inactive); with MCF7, 27.9 µM (inactive); in the assay on K562 it was 2.22 µM (inactive); with MDA-MB-231, 4.08 µM (inactive). The GI50 is 2.47 µM (inactive) with SW-620; 15.2 µM (inactive) in the assay with IGROV-1; 17.6 µM (inactive) in the assay with SF-268; 4.78 µM (inactive) in the assay with SK-MEL-5; 2.35 µM (inactive) in the assay with NCI-H460.

Turning to `O=C(c1cccnc1)N1N=C(c2ccc(Cl)cc2)CC1(O)c1cc(F)c(Cl)cc1Cl` (stereo not drawn), the GI50 with OVCAR-5 was 33.7 µM (inactive); with PC-3, 12.9 µM (inactive); in the assay on RPMI-8226 it was 12.2 µM (inactive); in the assay on HCT-15, 13.6 µM; in the assay with LOX IMVI it was 15.1 µM (inactive); in the assay with NCI/ADR-RES, 16 µM (inactive). Further, the GI50 in the assay with A549 was 24.9 µM (inactive); in the assay on SK-MEL-2, 22 µM (inactive); in the assay with UO-31 it was 15.9 µM (inactive); in the assay on K562, 16.6 µM (inactive); with MDA-MB-231, 15.1 µM (inactive); with SW-620 it was 22.2 µM (inactive). For the same compound, the GI50 is 1.65 µM (inactive) in the assay with IGROV-1; 19.2 µM (inactive) with SF-268; 11.3 µM (inactive) with SK-MEL-5; 7.05 µM (inactive) with RXF 393; 21.5 µM (inactive) with NCI-H460.

Take `N#CCCC(CC#N)N1CCN(C(CC#N)CCC#N)CC1` (stereo not drawn): the GI50 is > 100 µM (inactive) in the assay on OVCAR-5; > 100 µM (inactive) in the assay with PC-3; > 100 µM (inactive) with RPMI-8226; above 100 µM in the assay on HCT-15; > 100 µM (inactive) with NCI/ADR-RES; > 100 µM (inactive) in the assay on A549. Besides, the GI50 with UO-31, in the assay on MCF7, in the assay with K562, in the assay on SW-620, with IGROV-1 and in the assay with SF-268 was > 100 µM (inactive) each time. The GI50 with SK-MEL-5, in the assay on RXF 393 and with NCI-H460 was > 100 µM (inactive) throughout.

Take `COc1nc(N(C)C)nc2c1[n+](C)cn2C` [HETEROMINE A]: the GI50 with OVCAR-5 is > 100 µM (inactive); in the assay on PC-3, > 100 µM (inactive); in the assay on RPMI-8226, 6.08 µM (inactive); with HCT-15, above 100 µM; in the assay on LOX IMVI, 84.5 µM (inactive); in the assay on NCI/ADR-RES it was > 100 µM (inactive). The GI50 in the assay with A549 is 46.9 µM (inactive); with SK-MEL-2, 32.2 µM (inactive); in the assay on UO-31 it was > 100 µM (inactive); with K562 it was 18.6 µM (inactive); in the assay with MDA-MB-231, > 100 µM (inactive); in the assay on SW-620 it was 57.5 µM (inactive). For the same compound, the GI50 is > 100 µM (inactive) with IGROV-1; 31.8 µM (inactive) in the assay on SF-268; > 100 µM (inactive) in the assay with A498; 41.7 µM (inactive) in the assay on SK-MEL-5; 84.1 µM (inactive) in the assay on RXF 393; 44.2 µM (inactive) in the assay on NCI-H460.

Source of the values: ChEMBL document CHEMBL1201862, “PubChem BioAssay data set” (2004).
